Marks after values point to notes of the source that are not given here.
Legend:
Assay type in all cases: cell-based
hPPARδ = molecular target: T1, hPPARδ (Homo sapiens, UniProt Q03181); experiment: PPAR agonist reporter assay (Gal4 hybrid receptor, luciferase)
T1 construct: expressed in transfected cells
T1 sequence (Q03181 211-439 limits assumed): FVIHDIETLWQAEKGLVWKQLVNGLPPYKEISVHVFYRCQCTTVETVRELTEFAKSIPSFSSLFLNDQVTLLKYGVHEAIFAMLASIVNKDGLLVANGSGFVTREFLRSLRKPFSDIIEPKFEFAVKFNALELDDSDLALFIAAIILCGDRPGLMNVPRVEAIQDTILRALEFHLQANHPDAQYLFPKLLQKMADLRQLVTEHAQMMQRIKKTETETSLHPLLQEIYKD
Description: (§1) This study utilized proprietary reporter cells expressing a hybrid receptor comprising the N-terminal Gal4 DNA binding domain fused to the ligand binding domain of the specific human nuclear receptor (hPPARα, hPPARδ, and hPPARγ) and rat nuclear receptor (rPPARα, rPPARδ, and rPPARγ). The reporter vectors used in this Example comprise the firefly luciferase gene functionally linked to the Gal4 upstream activation sequence.
(§2) Nuclear Receptor assay was performed by dispensing 100 μL of a suspension of Reporter Cells in Cell Recovery Medium (CRM) containing 10% charcoal stripped FBS into each well of a white 96-well plate. Test compounds were diluted using compound screening medium (CSM) containing 10% charcoal stripped FBS to generate “2×-concentration” treatment media. Immediately after this dilution step, 100 μL of each diluted 2×-concentration treatment medium was dispensed (in triplicate) into the Reporter Cell-containing assay wells.
(§3) After incubation at 37° C. for 24 hours, the treatment media was discarded. 100 μL of Luciferase Detection Reagent substrate was added to each well and RLUs were quantified from each well to determine nuclear receptor activities.

hPPARγ = molecular target: T2, hPPARγ (Homo sapiens, UniProt P37231); experiment: as above
T2 construct: expressed in transfected cells
T2 sequence (P37231 238-503 limits assumed): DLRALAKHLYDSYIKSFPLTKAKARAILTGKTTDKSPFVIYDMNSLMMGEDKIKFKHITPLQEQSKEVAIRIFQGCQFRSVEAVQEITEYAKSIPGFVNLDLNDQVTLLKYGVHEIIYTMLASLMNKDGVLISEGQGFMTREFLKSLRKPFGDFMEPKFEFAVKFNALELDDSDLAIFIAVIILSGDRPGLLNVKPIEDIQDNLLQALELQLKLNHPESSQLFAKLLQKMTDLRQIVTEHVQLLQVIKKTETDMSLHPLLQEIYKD
Description: as §1, §2, §3

rPPARα Reporter Cells = experiment: Live cell multiplex assay
Description: as §1
(§4) Nuclear Receptor assay was performed by suspending Reporter Cells in CRM containing 10% charcoal stripped FBS. 2×-EC80 concentrations of the appropriate reference agonist were then added to the Reporter Cell suspension, and 100 μL of the mixture dispensed into wells of a white 96-well plate. Test compounds were diluted using compound screening medium (CSM) containing 10% charcoal stripped FBS to generate “2×-concentration” treatment media. Immediately after this dilution step, 100 μL of each diluted 2×-concentration treatment medium was dispensed (in triplicate) into the Reporter Cell-containing assay wells.
(§5) After incubation at 37° C. for 24 hours, the treatment media was discarded. Each well was rinsed once with LCM Buffer; LCM substrate was then added. After incubation for 30 minutes at 37° C., fluorescence was measured to determine the relative number of live cells per assay well. LCM substrate was then discarded and 100 μL of Luciferase Detection Reagent substrate was added to each well. RLUs were quantified from each well to determine nuclear receptor activities.

hPPARα Reporter Cells = experiment: Live cell multiplex assay
Description: as §1, §4, §5

rPPARγ Reporter Cells = experiment: Live cell multiplex assay
Description: as §1, §4, §5

hPPARγ Reporter Cells = experiment: Live cell multiplex assay
Description: as §1, §4, §5

hPPARδ Reporter Cells = experiment: Live cell multiplex assay
Description: as §1, §4, §5

rPPARδ Reporter Cells = experiment: Live cell multiplex assay
Description: as §1, §4, §5

Compound: CC/C=C\C/C=C\C/C=C\C/C=C\C/C=C\CCCC(=O)OCC [EPA-EE, EPA ethyl ester, reference compound]
- Fold-Activation (vs. 0.10% DMSO) hPPAR-δ (hPPARδ; 137 nM): 1.2 fold
- Fold-Activation (vs. 0.10% DMSO) hPPAR-δ (hPPARδ; 412 nM): 1.2 fold
- Fold-Activation (vs. 0.10% DMSO) hPPAR-δ (hPPARδ; 1,235 nM): 1.3 fold
- Fold-Activation (vs. 0.10% DMSO) hPPAR-δ (hPPARδ; 3,704 nM): 1.5 fold
- Fold-Activation (vs. 0.10% DMSO) hPPAR-δ (hPPARδ; 11,111 nM): 1.4 fold
- Fold-Activation (vs. 0.10% DMSO) hPPAR-δ (hPPARδ; 33,333 nM): 1.8 fold
- Fold-Activation (vs. 0.10% DMSO) hPPAR-δ (hPPARδ; 100,000 nM): 2.6* fold
- Fold-Activation (vs. 0.10% DMSO) hPPAR-δ (hPPARδ; 300,000 nM): 3.8* fold
- Fold-Activation (vs. 0.10% DMSO) hPPAR-γ (hPPARγ; 137 nM): 0.90 fold
- Fold-Activation (vs. 0.10% DMSO) hPPAR-γ (hPPARγ; 412 nM): 0.94 fold
- Fold-Activation (vs. 0.10% DMSO) hPPAR-γ (hPPARγ; 1,235 nM): 0.94 fold
- Fold-Activation (vs. 0.10% DMSO) hPPAR-γ (hPPARγ; 3,704 nM): 0.88 fold
- Fold-Activation (vs. 0.10% DMSO) hPPAR-γ (hPPARγ; 11,111 nM): 1.0 fold
- Fold-Activation (vs. 0.10% DMSO) hPPAR-γ (hPPARγ; 33,333 nM): 0.78 fold
- Fold-Activation (vs. 0.10% DMSO) hPPAR-γ (hPPARγ; 100,000 nM): 1.2 fold
- Fold-Activation (vs. 0.10% DMSO) hPPAR-γ (hPPARγ; 300,000 nM): 2.8* fold
- % Live cells vs. 0.10% DMSO, rPPAR-α (rPPARα Reporter Cells; 137 nM): 89%
- % Live cells vs. 0.10% DMSO, rPPAR-α (rPPARα Reporter Cells; 412 nM): 98%
- % Live cells vs. 0.10% DMSO, rPPAR-α (rPPARα Reporter Cells; 1,235 nM): 102%
- % Live cells vs. 0.10% DMSO, rPPAR-α (rPPARα Reporter Cells; 3,704 nM): 103%
- % Live cells vs. 0.10% DMSO, rPPAR-α (rPPARα Reporter Cells; 11,111 nM): 102%
- % Live cells vs. 0.10% DMSO, rPPAR-α (rPPARα Reporter Cells; 33,333 nM): 100%
- % Live cells vs. 0.10% DMSO, rPPAR-α (rPPARα Reporter Cells; 100,000 nM): 95%
- % Live cells vs. 0.10% DMSO, rPPAR-α (rPPARα Reporter Cells; 300,000 nM): 94%
- % Live cells vs. 0.10% DMSO, hPPAR-α (hPPARα Reporter Cells; 137 nM): 99%
- % Live cells vs. 0.10% DMSO, hPPAR-α (hPPARα Reporter Cells; 412 nM): 93%
- % Live cells vs. 0.10% DMSO, hPPAR-α (hPPARα Reporter Cells; 1,235 nM): 113%
- % Live cells vs. 0.10% DMSO, hPPAR-α (hPPARα Reporter Cells; 3,704 nM): 112%
- % Live cells vs. 0.10% DMSO, hPPAR-α (hPPARα Reporter Cells; 11,111 nM): 116%
- % Live cells vs. 0.10% DMSO, hPPAR-α (hPPARα Reporter Cells; 33,333 nM): 112%
- % Live cells vs. 0.10% DMSO, hPPAR-α (hPPARα Reporter Cells; 100,000 nM): 96%
- % Live cells vs. 0.10% DMSO, hPPAR-α (hPPARα Reporter Cells; 300,000 nM): 80%
- % Live cells vs. 0.10% DMSO, rPPAR-γ (rPPARγ Reporter Cells; 137 nM): 97%
- % Live cells vs. 0.10% DMSO, rPPAR-γ (rPPARγ Reporter Cells; 412 nM): 101%
- % Live cells vs. 0.10% DMSO, rPPAR-γ (rPPARγ Reporter Cells; 1,235 nM): 102%
- % Live cells vs. 0.10% DMSO, rPPAR-γ (rPPARγ Reporter Cells; 3,704 nM): 101%
- % Live cells vs. 0.10% DMSO, rPPAR-γ (rPPARγ Reporter Cells; 11,111 nM): 100%
- % Live cells vs. 0.10% DMSO, rPPAR-γ (rPPARγ Reporter Cells; 33,333 nM): 101%
- % Live cells vs. 0.10% DMSO, rPPAR-γ (rPPARγ Reporter Cells; 100,000 nM): 98%
- % Live cells vs. 0.10% DMSO, rPPAR-γ (rPPARγ Reporter Cells; 300,000 nM): 102%
- % Live cells vs. 0.10% DMSO, hPPAR-γ (hPPARγ Reporter Cells; 137 nM): 88%
- % Live cells vs. 0.10% DMSO, hPPAR-γ (hPPARγ Reporter Cells; 412 nM): 99%
- % Live cells vs. 0.10% DMSO, hPPAR-γ (hPPARγ Reporter Cells; 1,235 nM): 101%
- % Live cells vs. 0.10% DMSO, hPPAR-γ (hPPARγ Reporter Cells; 3,704 nM): 101%
- % Live cells vs. 0.10% DMSO, hPPAR-γ (hPPARγ Reporter Cells; 11,111 nM): 101%
- % Live cells vs. 0.10% DMSO, hPPAR-γ (hPPARγ Reporter Cells; 33,333 nM): 102%
- % Live cells vs. 0.10% DMSO, hPPAR-γ (hPPARγ Reporter Cells; 100,000 nM): 103%
- % Live cells vs. 0.10% DMSO, hPPAR-γ (hPPARγ Reporter Cells; 300,000 nM): 92%
- % Live cells vs. 0.10% DMSO, hPPAR-δ (hPPARδ Reporter Cells; 137 nM): 97%
- % Live cells vs. 0.10% DMSO, hPPAR-δ (hPPARδ Reporter Cells; 412 nM): 97%
- % Live cells vs. 0.10% DMSO, hPPAR-δ (hPPARδ Reporter Cells; 1,235 nM): 99%
- % Live cells vs. 0.10% DMSO, hPPAR-δ (hPPARδ Reporter Cells; 3,704 nM): 100%
- % Live cells vs. 0.10% DMSO, hPPAR-δ (hPPARδ Reporter Cells; 11,111 nM): 101%
- % Live cells vs. 0.10% DMSO, hPPAR-δ (hPPARδ Reporter Cells; 33,333 nM): 101%
- % Live cells vs. 0.10% DMSO, hPPAR-δ (hPPARδ Reporter Cells; 100,000 nM): 103%
- % Live cells vs. 0.10% DMSO, hPPAR-δ (hPPARδ Reporter Cells; 300,000 nM): 103%
- % Live cells vs. 0.10% DMSO, rPPAR-δ (rPPARδ Reporter Cells; 137 nM): 100%
- % Live cells vs. 0.10% DMSO, rPPAR-δ (rPPARδ Reporter Cells; 412 nM): 94%
- % Live cells vs. 0.10% DMSO, rPPAR-δ (rPPARδ Reporter Cells; 1,235 nM): 98%
- % Live cells vs. 0.10% DMSO, rPPAR-δ (rPPARδ Reporter Cells; 3,704 nM): 95%
- % Live cells vs. 0.10% DMSO, rPPAR-δ (rPPARδ Reporter Cells; 11,111 nM): 100%
- % Live cells vs. 0.10% DMSO, rPPAR-δ (rPPARδ Reporter Cells; 33,333 nM): 99%
- % Live cells vs. 0.10% DMSO, rPPAR-δ (rPPARδ Reporter Cells; 100,000 nM): 101%
- % Live cells vs. 0.10% DMSO, rPPAR-δ (rPPARδ Reporter Cells; 300,000 nM): 102%
